Measurements from patent US20240425500A1 (priority 2021, published 2024).

Columns and labels:
Pythium ultimum = Pythium ultimum / liquid culture (seedling damping off); assay type: cell-based; conditions: Globisporangium ultimum, liquid culture in PDB, 24 °C, 2-3 days after application, read-out: control of Pythium ultimum (inhibition of growth, photometric) compared to untreated control
In short: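 Mycelia fragments and oospores from fresh liquid culture mixed into potato dextrose broth and added to compound in DMSO. Incubated at 24° C.; growth inhibition read photometrically 2–3 days after application.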

Plasmopara viticola = assay: whole plant or invertebrate; assay type: in vivo; conditions: foliar, read-out: control of Plasmopara viticola compared to untreated control
Phytophthora infestans = assay: whole plant or invertebrate; assay type: in vivo; conditions: in Solanum lycopersicum, foliar, read-out: control of Phytophthora infestans compared to untreated control

COC(=O)Nc1ccc(-c2cnc3c(C)cc(C(=O)N(C)c4ccc(F)c(F)c4)cn23)cn1 [Compound 174, methyl N-[5-[6-[(3,4-difluorophenyl)-methyl-carbamoyl]-8-methyl-imidazo[1,2-a]pyridin-3-yl]-2-pyridyl]carbamate]
≥ 80%: inhibition at 20 ppm (Pythium ultimum) | pest or weed control at 200 ppm (Plasmopara viticola) | pest or weed control at 200 ppm (Phytophthora infestans)

CCN(C(=O)c1ccc2ncc(-c3ccc(NC(=O)OC)nc3)n2c1)c1ccc(F)c(OC)c1 [Compound 178, methyl N-[5-[6-[ethyl-(4-fluoro-3-methoxy-phenyl)carbamoyl]imidazo [1,2-a]pyridin-3-yl]-2-pyridyl]carbamate]
≥ 80%: inhibition at 20 ppm (Pythium ultimum) | pest or weed control at 200 ppm (Plasmopara viticola) | pest or weed control at 200 ppm (Phytophthora infestans)
